Reference: US8546414B2, “Ion channel modulators and methods of use” (Vertex Pharmaceuticals Incorporated, priority 2004, dated 2013)
pIC50: −log10 of the molar value.

Key:
Type in all cases: cell-based
CaV2.2 = molecular target: T1, CaV2.2 (Homo sapiens, UniProt Q00975); assay: VIPR optical membrane potential assay with electrical stimulation, CaV2.2; details: Table 9, CaV 2.2 receptors
T1 construct: expressed in transfected cells; host or cells: HEK293
Summary of the method: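 HEK293 cells stably expressing CaV2.2 stained with CC2-DMPE/DiSBAC2(3) voltage-sensitive dyes (10 μM final CC2-DMPE, 30 min, RT), then compound added and cells electrically stimulated for 3-5 s. Read-out: background-subtracted 460/580 nm emission ratio; response R=Rf/Ri (post- vs pre-stimulus ratio); antagonism seen as reduced response.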

NaV1.3 = molecular target: T2, NaV1.3 (Homo sapiens, UniProt Q9NY46); assay: VIPR optical membrane potential assay with electrical stimulation, NaV1.3; details: Table 9, NaV 1.3 receptors
T2 construct: expressed in transfected cells; host or cells: HEK293
Summary of the method: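 HEK293 cells stably expressing NaV1.3, stained with CC2-DMPE (10 μM final) then DiSBAC2(3) with ABSC1, 30 min each at RT; compounds added with oxonol. Electrical stimulation for 3 s; 460/580 nm background-subtracted emission ratio Rf/Ri, normalised to tetracaine (positive) and untreated (negative) controls.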

NaV1.8 = NaV1.8 (Homo sapiens, UniProt Q9Y5Y9); assay: VIPR optical membrane potential assay, NaV1.8 (other subtypes in an analogous mode); details: Table 9, NaV 1.8 receptors
Method: Antagonist properties of test compounds were assessed as follows. Cells expressing the NaV of interest were placed into microtiter plates. After an incubation period, the cells were stained with fluorescent dyes sensitive to the transmembrane potential. The test compounds were added to the microtiter plate. The cells were stimulated with either chemical or electrical means to evoke a NaV dependent membrane potential change from unblocked channels, which was detected and measured with trans-membrane potential-sensitive dyes. Antagonists were detected as a decreased membrane potential response to the stimulus.
24 hours before the assay on VIPR, CHO cells endogenously expressing a NaV 1.2 type voltage-gated NaV are seeded in 96-well poly-lysine coated plates at 60,000 cells per well. […] Plates are incubated in the dark for 30 minutes at room temperature. • 4) While the cells are being stained with coumarin, a […] oxonol solution in BS#2 is prepared. […] As before, the residual volume should be 40 μL. • 6) Upon removing the bath, the cells are loaded with 80 μL of the DiSBAC2(3) solution, after which test compound, dissolved in DMSO, is added to achieve the desired test concentration to each well from the drug addition plate and mixed thoroughly. The volume in the well should be roughly 121 μL. The cells are then incubated for 20-30 minutes. • 7) Once the incubation is complete, the cells are ready to be assayed on VIPR® with a sodium addback protocol. 120 μL of Bath solution #1 is added to stimulate the NaV dependent depolarization. […] tetracaine was used as an antagonist positive control for block of the NaV channel. Analysis of VIPR® Data:
The following is an example of how NaV1.3 inhibition activity is measured using the optical membrane potential method#2. Other subtypes are performed in an analogous mode in a cell line expressing the NaV of interest.

T1 sequence (Q00975 whole entry): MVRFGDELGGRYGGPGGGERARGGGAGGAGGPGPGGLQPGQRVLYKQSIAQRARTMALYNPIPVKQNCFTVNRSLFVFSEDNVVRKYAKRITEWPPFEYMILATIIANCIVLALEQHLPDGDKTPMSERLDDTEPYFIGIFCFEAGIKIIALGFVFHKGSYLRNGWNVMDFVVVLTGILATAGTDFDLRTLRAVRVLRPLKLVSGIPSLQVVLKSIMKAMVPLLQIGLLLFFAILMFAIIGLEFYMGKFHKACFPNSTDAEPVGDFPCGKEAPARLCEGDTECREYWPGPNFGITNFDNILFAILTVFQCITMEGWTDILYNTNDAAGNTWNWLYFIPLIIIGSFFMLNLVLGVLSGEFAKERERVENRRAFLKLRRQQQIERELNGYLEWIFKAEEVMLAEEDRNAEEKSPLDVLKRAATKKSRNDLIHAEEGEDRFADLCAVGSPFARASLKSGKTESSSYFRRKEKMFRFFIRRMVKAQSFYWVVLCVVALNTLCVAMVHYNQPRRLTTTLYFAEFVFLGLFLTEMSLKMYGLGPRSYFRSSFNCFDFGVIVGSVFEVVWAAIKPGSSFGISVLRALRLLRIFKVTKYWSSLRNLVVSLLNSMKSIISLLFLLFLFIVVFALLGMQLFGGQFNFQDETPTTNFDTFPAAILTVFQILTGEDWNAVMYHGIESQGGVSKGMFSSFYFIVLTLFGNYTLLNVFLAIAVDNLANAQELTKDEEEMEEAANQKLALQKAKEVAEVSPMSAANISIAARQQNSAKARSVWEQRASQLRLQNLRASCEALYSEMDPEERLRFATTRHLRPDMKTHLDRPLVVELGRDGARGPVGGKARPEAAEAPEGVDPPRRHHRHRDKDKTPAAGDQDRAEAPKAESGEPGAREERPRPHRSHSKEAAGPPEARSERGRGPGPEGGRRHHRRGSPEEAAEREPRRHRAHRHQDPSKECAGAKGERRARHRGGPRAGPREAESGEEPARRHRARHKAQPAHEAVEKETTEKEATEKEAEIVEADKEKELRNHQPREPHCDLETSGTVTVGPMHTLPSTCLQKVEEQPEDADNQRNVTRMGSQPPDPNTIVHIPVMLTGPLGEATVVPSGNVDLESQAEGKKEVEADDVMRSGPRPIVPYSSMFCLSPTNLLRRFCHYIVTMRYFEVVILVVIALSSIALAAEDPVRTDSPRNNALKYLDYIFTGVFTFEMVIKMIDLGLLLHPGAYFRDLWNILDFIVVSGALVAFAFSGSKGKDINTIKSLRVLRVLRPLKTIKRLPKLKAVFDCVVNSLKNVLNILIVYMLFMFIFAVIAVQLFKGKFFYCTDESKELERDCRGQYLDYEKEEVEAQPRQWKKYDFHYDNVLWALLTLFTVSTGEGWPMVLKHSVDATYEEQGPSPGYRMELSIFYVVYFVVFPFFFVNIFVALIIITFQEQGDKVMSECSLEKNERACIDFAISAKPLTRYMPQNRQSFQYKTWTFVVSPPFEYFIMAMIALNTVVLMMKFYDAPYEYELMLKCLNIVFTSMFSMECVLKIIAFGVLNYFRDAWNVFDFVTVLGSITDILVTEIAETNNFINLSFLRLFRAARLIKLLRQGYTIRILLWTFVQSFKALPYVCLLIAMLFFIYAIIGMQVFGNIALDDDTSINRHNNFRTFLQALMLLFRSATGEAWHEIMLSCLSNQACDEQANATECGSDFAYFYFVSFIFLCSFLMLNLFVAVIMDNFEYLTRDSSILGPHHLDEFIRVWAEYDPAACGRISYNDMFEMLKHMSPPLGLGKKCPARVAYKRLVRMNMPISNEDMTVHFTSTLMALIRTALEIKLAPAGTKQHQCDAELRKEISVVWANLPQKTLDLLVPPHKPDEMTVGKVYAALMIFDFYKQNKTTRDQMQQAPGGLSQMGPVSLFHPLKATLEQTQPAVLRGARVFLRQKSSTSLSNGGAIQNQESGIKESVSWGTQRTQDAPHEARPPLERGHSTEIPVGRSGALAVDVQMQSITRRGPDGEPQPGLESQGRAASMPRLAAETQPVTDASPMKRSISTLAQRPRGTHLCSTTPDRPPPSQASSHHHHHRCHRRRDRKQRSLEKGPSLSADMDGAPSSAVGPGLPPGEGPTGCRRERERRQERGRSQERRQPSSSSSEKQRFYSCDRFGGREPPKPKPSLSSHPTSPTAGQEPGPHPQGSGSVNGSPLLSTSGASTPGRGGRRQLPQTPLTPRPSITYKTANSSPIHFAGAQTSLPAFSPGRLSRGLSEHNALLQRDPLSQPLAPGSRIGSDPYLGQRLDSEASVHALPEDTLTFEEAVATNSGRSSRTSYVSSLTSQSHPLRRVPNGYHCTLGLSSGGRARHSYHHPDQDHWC
T1 sequence (P54284 whole entry partner): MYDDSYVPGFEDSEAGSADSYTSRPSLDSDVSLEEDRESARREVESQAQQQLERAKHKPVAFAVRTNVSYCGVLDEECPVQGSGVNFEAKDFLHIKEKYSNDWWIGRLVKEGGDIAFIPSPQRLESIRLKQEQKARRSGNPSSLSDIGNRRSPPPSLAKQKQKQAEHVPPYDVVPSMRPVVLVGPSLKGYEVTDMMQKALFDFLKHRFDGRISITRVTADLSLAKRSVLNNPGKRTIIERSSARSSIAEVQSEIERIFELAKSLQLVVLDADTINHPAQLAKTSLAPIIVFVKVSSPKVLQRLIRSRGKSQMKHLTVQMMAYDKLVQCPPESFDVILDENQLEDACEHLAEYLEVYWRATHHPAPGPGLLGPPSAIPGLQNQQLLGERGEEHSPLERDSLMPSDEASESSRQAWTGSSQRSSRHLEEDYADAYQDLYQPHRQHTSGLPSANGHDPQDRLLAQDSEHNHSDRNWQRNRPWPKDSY
T1 sequence (P54289 25-956 partner limits assumed): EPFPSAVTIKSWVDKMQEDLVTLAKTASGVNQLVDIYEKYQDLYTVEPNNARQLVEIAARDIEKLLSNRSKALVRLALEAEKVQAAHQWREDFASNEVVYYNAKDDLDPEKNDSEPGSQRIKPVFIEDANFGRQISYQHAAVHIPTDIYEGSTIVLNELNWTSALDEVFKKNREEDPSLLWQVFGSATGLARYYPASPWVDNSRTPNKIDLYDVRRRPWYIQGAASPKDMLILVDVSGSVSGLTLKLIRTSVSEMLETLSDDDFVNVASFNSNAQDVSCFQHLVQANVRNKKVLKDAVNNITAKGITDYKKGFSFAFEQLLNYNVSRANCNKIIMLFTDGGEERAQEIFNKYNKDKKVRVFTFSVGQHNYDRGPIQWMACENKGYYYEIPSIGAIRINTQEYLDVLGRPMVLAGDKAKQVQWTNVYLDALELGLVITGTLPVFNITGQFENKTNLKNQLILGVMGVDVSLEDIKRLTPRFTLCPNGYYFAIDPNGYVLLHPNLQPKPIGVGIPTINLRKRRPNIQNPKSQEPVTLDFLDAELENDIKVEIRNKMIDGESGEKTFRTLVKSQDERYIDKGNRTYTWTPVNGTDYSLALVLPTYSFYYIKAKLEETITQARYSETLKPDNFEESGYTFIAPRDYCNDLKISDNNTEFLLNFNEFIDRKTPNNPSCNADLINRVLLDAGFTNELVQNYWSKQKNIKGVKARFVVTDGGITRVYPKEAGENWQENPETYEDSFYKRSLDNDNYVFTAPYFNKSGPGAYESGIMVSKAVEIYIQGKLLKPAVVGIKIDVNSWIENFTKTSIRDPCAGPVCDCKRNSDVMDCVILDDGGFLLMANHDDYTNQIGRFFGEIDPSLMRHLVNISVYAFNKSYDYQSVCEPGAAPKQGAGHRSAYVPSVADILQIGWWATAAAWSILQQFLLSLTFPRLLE
T1 sequence (P54289 957-1103 partner limits assumed): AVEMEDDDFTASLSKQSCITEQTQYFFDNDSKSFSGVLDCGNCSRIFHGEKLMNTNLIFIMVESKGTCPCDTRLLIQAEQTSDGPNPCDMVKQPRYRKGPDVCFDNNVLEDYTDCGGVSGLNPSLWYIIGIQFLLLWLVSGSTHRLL

Structure (SMILES) | pIC50 (CaV2.2) | pIC50 (NaV1.3) | pIC50 (NaV1.8)
CCCN(CC1CC1)c1ncc(C(=O)N(Cc2cccc(OC)c2)C(C)C)c(-c2ccccc2F)n1 [compound 4] | > 5.70 | 5.00 to 5.70 | 5.00 to 5.70
CC(C)N(Cc1ccc(C(C)(C)C)cc1)C(=O)c1cnc(N2CCOCC2)nc1-c1ccccc1F [compound 24] | > 5.70 | 5.00 to 5.70 | 5.00 to 5.70
CC(C)N(Cc1ccccc1)C(=O)c1cnc(N2CCc3ccccc3C2)nc1-c1ccccc1F [compound 78] | > 5.70 | 5.00 to 5.70 | 5.00 to 5.70
COc1cccc(CN(C(=O)c2cnc(NC(C)c3ccccc3)nc2-c2ccccc2F)C(C)C)c1 (stereo not drawn) [compound 188] | > 5.70 | > 5.70 | 5.00 to 5.70
COc1cccc(CN(C(=O)c2c(C)nc(N3CCOCC3)nc2-c2ccccc2F)C(C)C)c1 [compound 186] | 5.00 to 5.70 | 5.00 to 5.70 | < 5.00
O=C(c1cnc(N2CCSCC2)nc1-c1ccccc1F)N(Cc1ccc(F)cc1)C1CC1 [compound 48] | 5.00 to 5.70 | 5.00 to 5.70 | < 5.00
COc1cccc(N(C(=O)c2cnc(N3CCCCC3)nc2-c2ccccc2Cl)C2CCCC2)c1 [compound 8] | 5.00 to 5.70 | 5.00 to 5.70 | < 5.00
COc1ccc(CN(C(=O)c2cnc(N3CCC4CCCCC4C3)nc2-c2ccccc2F)C2CC2)cc1 (stereo not drawn) [compound 184] | 5.00 to 5.70 | < 5.00 | < 5.00
CCC(COC)N(Cc1ccccc1)C(=O)c1cnc(N2CCOCC2)nc1-c1ccccc1F (stereo not drawn) [compound 113] | < 5.00 | 5.00 to 5.70 | < 5.00
COc1ccc(CN(C(=O)c2cnc(N3CCSCC3)nc2-c2ccccc2F)C2CC2)cc1 [compound 164] | 5.00 to 5.70 | 5.00 to 5.70 | 5.00 to 5.70
O=C(NCCOc1ccccc1)c1cnc(N2CCOCC2)nc1-c1ccc(Oc2ccccc2)cc1 [compound 121] | 5.00 to 5.70 | 5.00 to 5.70 | < 5.00
CC(C)N(C(=O)c1cnc(N2CCCCC2)nc1-c1ccccc1F)c1cccc([N+](=O)[O-])c1 [compound 140] | 5.00 to 5.70 | 5.00 to 5.70 | < 5.00
CN1CCN(c2ncc(C(=O)N(Cc3ccc(C(C)(C)C)cc3)C3CC3)c(-c3ccccc3F)n2)CC1 [compound 176] | 5.00 to 5.70 | < 5.00 | < 5.00
COc1ccc(N(C(=O)c2cnc(N3CCCCC3)nc2-c2ccccc2Cl)C(C)C)cc1 [compound 43] | 5.00 to 5.70 | 5.00 to 5.70 | < 5.00
O=C(c1cnc(N2CCSCC2)nc1-c1ccccc1F)N1Cc2ccccc2C1 [compound 206] | < 5.00 | < 5.00 | < 5.00
O=C(NC1CC1c1ccccc1)c1cnc(N2CCOCC2)nc1-c1ccccc1F (stereo not drawn) [compound 97] | < 5.00 | < 5.00 | < 5.00
COc1cccc(N(C(=O)c2cnc(N3CCC4CCCCC4C3)nc2-c2ccccc2F)C2CCCC2)c1 (stereo not drawn) [compound 154] | 5.00 to 5.70 | < 5.00 | < 5.00
CC(C)N(Cc1ccccc1)C(=O)c1cnc(NCCc2cccc(C(F)(F)F)c2)nc1-c1ccccc1F [compound 173] | > 5.70 | 5.00 to 5.70 | < 5.00
CC(C)(C)c1ccc(CN(C(=O)c2cnc(N3CCSCC3)nc2-c2ccccc2F)C2CC2)cc1 [compound 2] | 5.00 to 5.70 | < 5.00 | < 5.00
O=C(c1cnc(N2CCCCC2)nc1-c1ccccc1F)N(Cc1ccccc1)C1CC1 [compound 90] | 5.00 to 5.70 | 5.00 to 5.70 | 5.00 to 5.70
O=C(c1cnc(N2CCOCC2)nc1-c1ccccc1F)N1CCc2ccccc2C1 [compound 107] | < 5.00 | < 5.00 | < 5.00
CC(C)N(Cc1ccc2c(c1)OCO2)C(=O)c1cnc(N2CCCCC2)nc1-c1ccccc1F [compound 94] | > 5.70 | > 5.70 | 5.00 to 5.70
CC(C)N(Cc1ccccc1)C(=O)c1cnc(NC2CC3CCC2C3)nc1-c1ccccc1F (stereo not drawn) [compound 29] | > 5.70 | 5.00 to 5.70 | 5.00 to 5.70
COc1cccc(N(C(=O)c2cnc(N3CCC4CCCCC4C3)nc2-c2ccccc2F)C(C)C)c1 (stereo not drawn) [compound 34] | 5.00 to 5.70 | 5.00 to 5.70 | < 5.00
